In patent US10413535B2, “Pharmaceutical compositions comprising an integrin ALPHA4 antagonist for use in treating ocular inflammatory conditions” (AXEROVISION, INC., priority 2015, dated 2019):
Where two headings read alike, the source gives them in different places.

Assay: Toxicokinetics in 13-week topical ocular dog study
Settings: in vivo, topical or ocular
Description: GW559090A was given to Beagle Dogs by topical ocular administration for 13 weeks. Animals were dosed six or twelve times per day, with one hour between doses. Treatment groups were: (1) vehicle (12 times a day), (2) 30 mg/mL/occasion given six times a day, (3) 50 mg/mL/occasion given six times a day, or (4) 50 mg/mL/occasion, given 12 times a day.
GW559090A was formulated as a stock solution in 25 mM phosphate buffer with 0.5% sodium chloride to provide a 50 mg/mL stock solution, which was used for administration to Groups 3 or 4, or further diluted with 25 mM phosphate buffer with 0.75% sodium chloride to provide a 30 mg/mL solution for administration to Group 2.
During the 13 week treatment period dogs received daily topical ocular doses of GW559090 or vehicle (12 times a day) at a constant dose volume of 0.06 mL (given 6 or 12 times a day, with one hour between doses). The test article formulation or vehicle was carefully dropped into the everted lower eyelid of the left eye from a suitable distance, to prevent contact of the positive displacement pipette with the eye. The lower and upper lids were then gently held together for approximately five seconds, to prevent loss of dose and aid even distribution across the external ocular surface. The un-dosed eye was not manipulated at any time and served as a within animal untreated control site.

## Cc1ccccc1OCC(=O)N[C@@H](CC(C)C)C(=O)N[C@@H](Cc1ccc(OC(=O)N2CCC(C(N)=O)CC2)cc1)C(=O)O [GW559090, (2S)-3-[4-({[4-(Aminocarbonyl)-1-piperidinyl]carbonyl}oxy)phenyl]-2-[((2S)-4-methyl-2-{[2-(2-methylphenoxy)acetyl]amino}pentanoyl)amino]propanoic acid]
Both sexes, Beagle, 50 mg/mL/occasion, dogs, males and females combined, 50 mg/mL/occasion 12 times a day, Week 13, read-out: AUC0-1 exposure at NOAEL
  AUC(0-t): 11.2 ng·h/mL
Both sexes, Beagle, 50 mg/mL/occasion, dogs, males and females combined, 50 mg/mL/occasion 12 times a day, Week 13, read-out: Estimated AUC0-24 at NOAEL
  Estimated AUC0-24: 134 ng·h/mL
Both sexes, Beagle, dogs, males and females combined, 50 mg/mL/occasion 12 times a day, Week 13, read-out: Cmax at NOAEL
  Cmax: 28.7 ng/mL
female, beagle, 30 mg/mL/occasion, female dogs, 30 mg/mL, 6 daily doses, Day 1
  Tmax: 30 min
female, beagle, 30 mg/mL/occasion, female dogs, 30 mg/mL, 6 daily doses, Day 1, read-out: AUC0-1
  AUC(0-t): 5.27 ng·h/mL
female, beagle, 30 mg/mL/occasion, female dogs, 30 mg/mL, 6 daily doses, Day 1, read-out: AUC0-24
  AUC(0-t): 31.6 ng·h/mL
female, beagle, 30 mg/mL/occasion, female dogs, 30 mg/mL, 6 daily doses, Day 1, read-out: Cmax
  Cmax: 12.2 ng/mL
female, beagle, 30 mg/mL/occasion, female dogs, 30 mg/mL, 6 daily doses, Week 4
  Tmax: 22.5 min
female, beagle, 30 mg/mL/occasion, female dogs, 30 mg/mL, 6 daily doses, Week 4, read-out: AUC0-1
  AUC(0-t): 4.28 ng·h/mL
female, beagle, 30 mg/mL/occasion, female dogs, 30 mg/mL, 6 daily doses, Week 4, read-out: AUC0-24
  AUC(0-t): 25.7 ng·h/mL
female, beagle, 30 mg/mL/occasion, female dogs, 30 mg/mL, 6 daily doses, Week 4, read-out: Cmax
  Cmax: 9.34 ng/mL
female, beagle, 30 mg/mL/occasion, female dogs, 30 mg/mL, 6 daily doses, Week 13
  Tmax: 15 min
female, beagle, 30 mg/mL/occasion, female dogs, 30 mg/mL, 6 daily doses, Week 13, read-out: AUC0-1
  AUC(0-t): 6.05 ng·h/mL
female, beagle, 30 mg/mL/occasion, female dogs, 30 mg/mL, 6 daily doses, Week 13, read-out: AUC0-24
  AUC(0-t): 36.3 ng·h/mL
female, beagle, 30 mg/mL/occasion, female dogs, 30 mg/mL, 6 daily doses, Week 13, read-out: Cmax
  Cmax: 17.5 ng/mL
female, beagle, 50 mg/mL/occasion, female dogs, 50 mg/mL, 6 daily doses, Day 1
  Tmax: 15 min
female, beagle, 50 mg/mL/occasion, female dogs, 50 mg/mL, 6 daily doses, Day 1, read-out: AUC0-1
  AUC(0-t): 8.79 ng·h/mL
female, beagle, 50 mg/mL/occasion, female dogs, 50 mg/mL, 6 daily doses, Day 1, read-out: AUC0-24
  AUC(0-t): 52.7 ng·h/mL
female, beagle, 50 mg/mL/occasion, female dogs, 50 mg/mL, 6 daily doses, Day 1, read-out: Cmax
  Cmax: 17 ng/mL
female, beagle, 50 mg/mL/occasion, female dogs, 50 mg/mL, 6 daily doses, Week 4
  Tmax: 15 min
female, beagle, 50 mg/mL/occasion, female dogs, 50 mg/mL, 6 daily doses, Week 4, read-out: AUC0-1
  AUC(0-t): 5.26 ng·h/mL
female, beagle, 50 mg/mL/occasion, female dogs, 50 mg/mL, 6 daily doses, Week 4, read-out: AUC0-24
  AUC(0-t): 31.6 ng·h/mL
female, beagle, 50 mg/mL/occasion, female dogs, 50 mg/mL, 6 daily doses, Week 4, read-out: Cmax
  Cmax: 11.4 ng/mL
female, beagle, 50 mg/mL/occasion, female dogs, 50 mg/mL, 6 daily doses, Week 13
  Tmax: 10 min
female, beagle, 50 mg/mL/occasion, female dogs, 50 mg/mL, 6 daily doses, Week 13, read-out: AUC0-1
  AUC(0-t): 6.64 ng·h/mL
female, beagle, 50 mg/mL/occasion, female dogs, 50 mg/mL, 6 daily doses, Week 13, read-out: AUC0-24
  AUC(0-t): 39.8 ng·h/mL
female, beagle, 50 mg/mL/occasion, female dogs, 50 mg/mL, 6 daily doses, Week 13, read-out: Cmax
  Cmax: 17.9 ng/mL
female, beagle, 50 mg/mL/occasion, female dogs, 50 mg/mL, 12 daily doses, Day 1
  Tmax: 30 min
female, beagle, 50 mg/mL/occasion, female dogs, 50 mg/mL, 12 daily doses, Day 1, read-out: AUC0-1
  AUC(0-t): 12.8 ng·h/mL
female, beagle, 50 mg/mL/occasion, female dogs, 50 mg/mL, 12 daily doses, Day 1, read-out: AUC0-24
  AUC(0-t): 153 ng·h/mL
female, beagle, 50 mg/mL/occasion, female dogs, 50 mg/mL, 12 daily doses, Day 1, read-out: Cmax
  Cmax: 21.8 ng/mL
female, beagle, 50 mg/mL/occasion, female dogs, 50 mg/mL, 12 daily doses, Week 4
  Tmax: 10 min
female, beagle, 50 mg/mL/occasion, female dogs, 50 mg/mL, 12 daily doses, Week 4, read-out: AUC0-1
  AUC(0-t): 6.77 ng·h/mL
female, beagle, 50 mg/mL/occasion, female dogs, 50 mg/mL, 12 daily doses, Week 4, read-out: AUC0-24
  AUC(0-t): 81.2 ng·h/mL
female, beagle, 50 mg/mL/occasion, female dogs, 50 mg/mL, 12 daily doses, Week 4, read-out: Cmax
  Cmax: 14.5 ng/mL
female, beagle, 50 mg/mL/occasion, female dogs, 50 mg/mL, 12 daily doses, Week 13
  Tmax: 15 min
female, beagle, 50 mg/mL/occasion, female dogs, 50 mg/mL, 12 daily doses, Week 13, read-out: AUC0-1
  AUC(0-t): 12.1 ng·h/mL
female, beagle, 50 mg/mL/occasion, female dogs, 50 mg/mL, 12 daily doses, Week 13, read-out: AUC0-24
  AUC(0-t): 146 ng·h/mL
female, beagle, 50 mg/mL/occasion, female dogs, 50 mg/mL, 12 daily doses, Week 13, read-out: Cmax
  Cmax: 30.5 ng/mL
male, beagle, 30 mg/mL/occasion, male dogs, 30 mg/mL, 6 daily doses, Day 1, read-out: AUC0-1
  AUC(0-t): 3.82 ng·h/mL
male, beagle, 30 mg/mL/occasion, male dogs, 30 mg/mL, 6 daily doses, Day 1, read-out: AUC0-24
  AUC(0-t): 22.9 ng·h/mL
male, beagle, 30 mg/mL/occasion, male dogs, 30 mg/mL, 6 daily doses, Day 1, read-out: Cmax
  Cmax: 7.41 ng/mL
male, beagle, 30 mg/mL/occasion, male dogs, 30 mg/mL, 6 daily doses, Week 4
  Tmax: 15 min
male, beagle, 30 mg/mL/occasion, male dogs, 30 mg/mL, 6 daily doses, Week 4, read-out: AUC0-1
  AUC(0-t): 2.27 ng·h/mL
male, beagle, 30 mg/mL/occasion, male dogs, 30 mg/mL, 6 daily doses, Week 4, read-out: AUC0-24
  AUC(0-t): 13.6 ng·h/mL
male, beagle, 30 mg/mL/occasion, male dogs, 30 mg/mL, 6 daily doses, Week 4, read-out: Cmax
  Cmax: 5.3 ng/mL
male, beagle, 30 mg/mL/occasion, male dogs, 30 mg/mL, 6 daily doses, Week 13
  Tmax: 30 min
male, beagle, 30 mg/mL/occasion, male dogs, 30 mg/mL, 6 daily doses, Week 13, read-out: AUC0-1
  AUC(0-t): 3.81 ng·h/mL
male, beagle, 30 mg/mL/occasion, male dogs, 30 mg/mL, 6 daily doses, Week 13, read-out: AUC0-24
  AUC(0-t): 22.9 ng·h/mL
male, beagle, 30 mg/mL/occasion, male dogs, 30 mg/mL, 6 daily doses, Week 13, read-out: Cmax
  Cmax: 7.03 ng/mL
male, beagle, 50 mg/mL/occasion, male dogs, 50 mg/mL, 6 daily doses, Day 1
  Tmax: 4.98 min
male, beagle, 50 mg/mL/occasion, male dogs, 50 mg/mL, 6 daily doses, Day 1, read-out: AUC0-1
  AUC(0-t): 18.4 ng·h/mL
male, beagle, 50 mg/mL/occasion, male dogs, 50 mg/mL, 6 daily doses, Day 1, read-out: AUC0-24
  AUC(0-t): 110 ng·h/mL
male, beagle, 50 mg/mL/occasion, male dogs, 50 mg/mL, 6 daily doses, Day 1, read-out: Cmax
  Cmax: 52.8 ng/mL
male, beagle, 50 mg/mL/occasion, male dogs, 50 mg/mL, 6 daily doses, Week 4
  Tmax: 10 min
male, beagle, 50 mg/mL/occasion, male dogs, 50 mg/mL, 6 daily doses, Week 4, read-out: AUC0-1
  AUC(0-t): 8.74 ng·h/mL
male, beagle, 50 mg/mL/occasion, male dogs, 50 mg/mL, 6 daily doses, Week 4, read-out: AUC0-24
  AUC(0-t): 52.4 ng·h/mL
male, beagle, 50 mg/mL/occasion, male dogs, 50 mg/mL, 6 daily doses, Week 4, read-out: Cmax
  Cmax: 24.2 ng/mL
male, beagle, 50 mg/mL/occasion, male dogs, 50 mg/mL, 6 daily doses, Week 13
  Tmax: 15 min
male, beagle, 50 mg/mL/occasion, male dogs, 50 mg/mL, 6 daily doses, Week 13, read-out: AUC0-1
  AUC(0-t): 6.36 ng·h/mL
male, beagle, 50 mg/mL/occasion, male dogs, 50 mg/mL, 6 daily doses, Week 13, read-out: AUC0-24
  AUC(0-t): 38.2 ng·h/mL
male, beagle, 50 mg/mL/occasion, male dogs, 50 mg/mL, 6 daily doses, Week 13, read-out: Cmax
  Cmax: 13.2 ng/mL
male, beagle, 50 mg/mL/occasion, male dogs, 50 mg/mL, 12 daily doses, Day 1
  Tmax: 22.5 min
male, beagle, 50 mg/mL/occasion, male dogs, 50 mg/mL, 12 daily doses, Day 1, read-out: AUC0-1
  AUC(0-t): 36.6 ng·h/mL
male, beagle, 50 mg/mL/occasion, male dogs, 50 mg/mL, 12 daily doses, Day 1, read-out: AUC0-24
  AUC(0-t): 439 ng·h/mL
male, beagle, 50 mg/mL/occasion, male dogs, 50 mg/mL, 12 daily doses, Day 1, read-out: Cmax
  Cmax: 69.7 ng/mL
male, beagle, 50 mg/mL/occasion, male dogs, 50 mg/mL, 12 daily doses, Week 4
  Tmax: 15 min
male, beagle, 50 mg/mL/occasion, male dogs, 50 mg/mL, 12 daily doses, Week 4, read-out: AUC0-1
  AUC(0-t): 11.8 ng·h/mL
male, beagle, 50 mg/mL/occasion, male dogs, 50 mg/mL, 12 daily doses, Week 4, read-out: AUC0-24
  AUC(0-t): 142 ng·h/mL
male, beagle, 50 mg/mL/occasion, male dogs, 50 mg/mL, 12 daily doses, Week 4, read-out: Cmax
  Cmax: 23.8 ng/mL
male, beagle, 50 mg/mL/occasion, male dogs, 50 mg/mL, 12 daily doses, Week 13
  Tmax: 15 min
male, beagle, 50 mg/mL/occasion, male dogs, 50 mg/mL, 12 daily doses, Week 13, read-out: AUC0-1
  AUC(0-t): 10.2 ng·h/mL
male, beagle, 50 mg/mL/occasion, male dogs, 50 mg/mL, 12 daily doses, Week 13, read-out: AUC0-24
  AUC(0-t): 122 ng·h/mL
male, beagle, 50 mg/mL/occasion, male dogs, 50 mg/mL, 12 daily doses, Week 13, read-out: Cmax
  Cmax: 26.8 ng/mL
